“Also recorded” adds a separate entry of the source.
Tests used:
MDA-MB-231 cell line = assay: Receptor binding of radioiodinated ligand to MDA-MB-231 cells, Scatchard analysis; parameters: species or system human; conditions: for specific binding(cpm)/10^6 cells: MDA-MB-231, 125I-ligand, room temperature 60 min
Protocol: (§1) FIG. 20 is a graphical representation showing Scatchard analyses of the saturation isotherms of LIF and OSM binding to breast cancer cell lines. Cells were incubated with various concentrations of labelled or unlabelled ligand in the presence or absence of a 10-100 fold excess of unlabelled ligand. After 18 hr on ice, bound and free ligand were separated by centrifugation through bovine calf serum. Bound and free ^125I-ligand was quantitated in a γ-counter and the data was depicted as a Scatchard transformation. Data was normalised for cell number and is shown as binding to 10^6 cells. A) Saturation isotherm of LIF binding to the MCF-7 cell line. […] B) Saturation isotherm of OSM binding to the MDA-MB-231 cell line.
(§2) Receptor binding assays were performed using radioiodinated LIF (^125I-LIF) and OSM (^125I-OSM). The radioiodination of LIF and OSM and binding assays were essentially performed as previously described (Hilton et al., 1991; Hilton and Nicola, 1992). Briefly, 50 μl aliquots containing 1×10^7 cells, suspended in RPMI-1640 medium containing 10% (v/v) BCS, were placed in Falcon tubes with 40 μl of the respective radioiodinated ligand at 1×10^5 cpm per 40 μl, with or without greater than a 40-fold excess of unlabelled ligand. Incubation was carried out at room temperature for 60 min and cells were resuspended and layered over 180 μl of (v/v) BCS. Cell associated and free radioiodinated ligand were separated by centrifugation. The pellet and supernatant were subsequently counted in a γ-counter. Specific binding was estimated by subtraction of non specific binding from binding with ^125I-ligand (total binding). Number of cell surface receptors and dissociation constant were calculated by Scatchard analysis.

T47D = assay: Receptor binding of radioiodinated ligand to T-47D cells; parameters: species or system human; conditions: 125I-ligand, room temperature 60 min
Protocol: as §2

MCF-7 cells [1] = assay: Proliferation of MCF-7 cells in monolayer (liquid) culture, viable cell count; format: cell-based, human; conditions: for mean inhibition of cell proliferation: MCF-7, 7 days exposure, LIF 1000 U/ml, IL-6 100 ng/ml, OSM 10 ng/ml, IL-11 100 ng/ml, vs untreated control; for effect on cell proliferation (in words): MCF-7 / MCF-7M, up to 1 week culture
Protocol: FIGS. 2A, B and C are graphical representations of MCF-7M cells in liquid culture. 10^4 MCF-7M cells were cultured in 500 μl RPMI/10% bovine calf serum (BCS) (v/v) containing the indicated concentration of each of the growth factors (OSM or LIF). After 7 days culture viable cells were counted using a hemacytometer. Cell numbers reported here are the result of one experiment, each performed in triplicate.
FIG. 7 is a graphical representation showing inhibition of proliferation of MCF-7 cells by Oncostatin M (OSM). 10^4 MCF-7 cells were cultured in 500 μl RPMI/10% (v/v) BCS with the indicated concentrations of OSM. At 2, 4 and 6 days, viable cells were counted using a hemacytometer. Results are from 3 experiments, each performed in triplicate.
FIG. 8 is a graphical representation showing that MCF-7 cells are inhibited in a dose-dependent fashion by Oncostatin M (OSM). 10^4 MCF-7 cells were cultured in 500 μl RPMI/10% (v/v) BCS with the indicated concentrations of OSM. After 7 days viable cells were counted, and cell number expressed as a percentage of the corresponding untreated control value.
FIG. 16 is a graphical representation showing inhibition of MCF-7 cells after 7 days in suspension culture. 10^4MCF-7 cells were cultured in 500 μl RPMI/10% (v/v) BCS with the indicated growth factor. After 7 days viable cells were counted using a hemacytometer. Results are from 9 experiments, each performed in triplicate.
(§3) Proliferation of the cell lines was measured in monolayer culture in 24 well Costar cluster plates. Cells were plated at an initial density of 10 000 cells/ml and cultured in 500 μl RPMI-1640 supplemented with 10% (v/v) (v/v) BCS and with each growth factor as indicated (LIF, 1000 U/ml; IL-6, 100 ng/ml; OSM, 10 ng/ml; CNTF, 10 ng/ml; IL-11, 100 ng/ml). These concentrations are maximally active in other systems (Nandurkar et al., 1996; Hilton et al., 1994; Zhang et al., 1994; Tanigawa et al., 1995). After 7 or 10 days at 37° C. in a fully humidified atmosphere containing 10% (v/v) CO2 in air, cells were trypsinised and counted using a haemocytometer and an inverted microscope. Cell viability was assessed using eosin exclusion. Results were expressed as a percentage of the corresponding untreated control value for that experiment.

HBL-100 cell line = assay: Receptor binding of radioiodinated ligand to HBL-100 cells, Scatchard analysis; parameters: species or system human; conditions: for specific binding(cpm)/10^6 cells: HBL-100, 125I-ligand, room temperature 60 min
Protocol: as §1, §2

[2] = system: four breast cancer cell lines; assay: Proliferation of four breast cancer cell lines in monolayer culture (summary); format: cell-based, human
Protocol: as §3
Experiments were performed to determine whether these morphological changes were associated with alterations in cell growth. The proliferation of four breast cancer cell lines was examined in monolayer cultures containing either IL-6, LIF, OSM, CNTF or IL-11.

MCF-7 cell line = assay: Receptor binding of radioiodinated ligand to MCF-7 cells, Scatchard analysis; parameters: species or system human; conditions: for Kd: MCF-7, Scatchard analysis, read-out: dissociation constant; for specific binding(cpm)/10^6 cells: MCF-7M, 125I-ligand, room temperature 60 min
Protocol: as §1, §2

MCF-7 cells [3] = assay: Clonogenic assay in agar after monolayer culture; format: cell-based, human; conditions: MCF-7, 7 days monolayer then 14 days agar
Protocol: FIG. 3 is a graphical representation showing clonogenicity of MCF-7M cells. Following suspension culture MCF-7M cell viability was measured by agar culture. Cells were plated in agar with the indicated concentrations of each of the growth factors. After 14 days culture colonies of cells were counted. Cell numbers reported here are the results of 3 experiments, each performed in triplicate, and are expressed according to the number of cells that went into suspension culture.
FIG. 17 is a graphical representation showing clonogenicity of MCF-7 cells after 1 week in suspension culture. Following suspension culture clonogenicity of MCF-7 cells was assayed in agar culture. Cells were plated in agar with the indicated growth factor and maintained at 37° C0 in a humidified incubator with 5% CO2 in air. After 14 days colonies of cells were counted. Results are from 9 experiments using IL-6, LIF and OSM, and 5 experiments using CNTF and IL-11. Each experiment was performed in triplicate, and colony numbers are expressed as a percentage of untreated controls.
Clonogenic potential of cells following monolayer culture was assessed in a semi-solid culture medium. Cells were cultured in triplicate in 35 mm Petri dishes containing 1 ml Iscove's modified Dulbecco's medium (IMDM) supplemented with 25% (v/v) (v/v) BCS, 0.3% (w/v) agar with final concentration of growth factor as outlined above, and with 200 cells per ml for control cultures Cultures were maintained at 37° C. in a humidified incubator with 5% (v/v) CO2 in air. After 14 days, colonies were enumerated using a dissecting microscope. A colony was defined as a clone of greater than 40 cells. All cultures were performed in triplicate.

| Substance | specific binding(cpm)/10^6 cells (MDA-MB-231 cell line) | specific binding(cpm)/10^6 cells (T47D) | mean inhibition of cell proliferation (MCF-7 cells [1]) [%] | effect on cell proliferation (in words) (MCF-7 cells [1]) | specific binding(cpm)/10^6 cells (HBL-100 cell line) | Kd (HBL-100 cell line; HBL-100, Scatchard analysis, read-out: dissociation constant) [pM] | cell lines with significant inhibition of cellular proliferation [2] | Kd (MCF-7 cell line) [pM] | specific binding(cpm)/10^6 cells (MCF-7 cell line) | effect on colony formation / clonogenic potential (in words) (MCF-7 cells [3]) | Kd (MDA-MB-231 cell line; MDA-MB-231, Scatchard analysis, read-out: dissociation constant) [pM] | inhibition of cell proliferation, up to (maximum observed) (MCF-7 cells [1]; MCF-7, 7 days exposure to OSM, 9 experiments) | reduced binding of radiolabelled ligand compared with the other cell lines (HBL-100 cell line; HBL-100 vs T-47D, MDA-MB-231, MCF-7) |
| --- | --- | --- | --- | --- | --- | --- | --- | --- | --- | --- | --- | --- | --- |
| Leukemia Inhibitory Factor [LIF] | 450 +/− 120 cpm | 380 +/− 10 cpm | 37 | induced inhibition | 590 +/− 30 cpm | 7.49 | ¼ | 14.6 | 350 +/− 100 cpm | significant reduction of colony formation | – | – | – |
| oncostatin M [OSM] | 2980 +/− 460 cpm | 1400 +/− 20 cpm | 85 | inhibition of cell proliferation; also recorded: inhibition of cellular proliferation | 140 +/− 10 cpm | – | ¾ | 2000 | 1250 +/− 90 cpm | significant reduction of colony formation | 92 | up to 94% | approximately 10 fold |

From US20020106347A1, “Cytokines and their use in treatment and/or prophylaxis of breast cancer” (priority 1995, published 2002)
